Reference: PMC12458545, “Repurposing a Detrimental Antibody Epitope as Targeted Therapeutics for Sepsis and Rheumatoid Arthritis” (Research Square, 2025)
“Also recorded” adds a separate entry of the source.

Columns and labels:
human PBMCs [1] = assay: HMGB1-induced pCTS-L secretion, Western blot; assay type: cell-based; settings: P2–1 5 or 10 μg/ml, HMGB1 0.5 or 2.0 μg/ml, 16 h, n = 4 independent experiments
Procedure: (§1) Human blood was purchased from the New York Blood Center (Long Island City, NY, USA), and PBMCs were isolated by density gradient centrifugation through Ficoll (Ficoll-Paque PLUS) as previously described,[30]. PBMCs were cultured in RPMI-1640 supplemented with 10% human serum, 2 mM L-glutamine, 100 U/mL penicillin, and 100 μg/mL streptomycin (all from Invitrogen). For experiments, PBMCs were stimulated with recombinant human HMGB1 (0.5 or 2.0 μg/ml) for 16 hours, either alone or in combination with P2–1 at 5.0 or 10.0 μg/ml. Cell-free supernatants were collected for analysis of cytokines/chemokines levels by Cytokine Antibody Arrays, or pCTS-L levels by Western blotting analysis as described.
Cell-conditioned medium from human PBMC cultures was collected, and concentrated using Amicon Ultra Centrifugal Filters. Equal volumes of conditioned medium, representing equivalent numbers of cells, were resolved on sodium dodecyl sulfate (SDS)-polyacrylamide gels and transferred to polyvinylidene difluoride (PVDF) membranes. After blocking with 5% nonfat milk in Tris-buffered saline with 0.1% Tween 20 (TBST), membranes were probed with a home-made primary monoclonal antibody against pCTS-L (e.g., mAb2, 1:1000) overnight as previously described. After washing, membranes were incubated with a horseradish peroxidase-conjugated secondary antibody. Protein bands were visualized using enhanced chemiluminescence (ECL) substrate (Pierce) and detected with a chemiluminescence imaging system (e.g., Bio-Rad ChemiDoc MP). The relative levels of specific proteins were determined using the UN-SCAN-IT Gel Analysis Software Version 7.1 (Silk Scientific Inc., Orem, UT, USA) and expressed in arbitrary units (AU).

human PBMCs [2] = assay: HMGB1-induced cytokine/chemokine secretion, Cytokine Antibody Arrays; assay type: cell-based; settings: P2–1 5 or 10 μg/ml, HMGB1 0.5 or 2.0 μg/ml, 16 h
Procedure: as §1
(§2) Levels of cytokines and chemokines in mouse serum and joint tissue lysates, or human PBMC culture supernatants were determined using murine or human Cytokine Antibody Arrays (e.g., Cat. No. M0308003 or Cat. No. AAH-CYT-3–4, RayBiotech Inc., Norcross, GA, USA) as previously described,[30],[86],[87]. Serum samples were collected from mice at 24 h post-CLP. The soft tissue of the hindpaw and ankle joints was carefully collected using a previously described protocol. Briefly, 0.5 g of fresh soft tissue was cut into 3 mm pieces, and mixed with 400 μL of a hypertonic solution (500 mL PBS with 4.5 g NaCl and 2× protease inhibitor cocktail) in a 10 mL syringe. Mechanical extrusion, involving 30 rapid back-and-forth movements of the plunger, was then performed. The expelled extracellular fluid was collected, immediately aliquoted, and stored at −20°C until analysis. Cell-conditioned medium was collected from PBMC cultures after 16 h of stimulation. Arrays were performed according to the manufacturer’s protocol, followed by chemiluminescent detection and densitometric quantification as previously described,[30].

[3] = system: sepsis-induced systemic cytokines and chemokines; assay: serum cytokines/chemokines in CLP sepsis, Cytokine Antibody Arrays; assay type: in vivo, Balb/C mice; settings: P2–1 0.1 or 1.0 mg/kg i.p. at 2 h and 20 h post-CLP; blood at 24 h
Procedure: (§3) Experimental sepsis was induced in Balb/C mice via cecal ligation and puncture (CLP) as previously described,[30],[37]. […] Briefly, mice were anesthetized intramuscularly with ketamine (75 mg/kg, Henry Schein Animal Health, Dublin, Ohio) and xylazine (10 mg/kg, Sigma-Aldrich) before a midline abdominal incision was made in the lower left abdomen. The cecum was ligated with a 4–0 silk suture at 50% of its length from the distal end, and punctured twice with a 21-gauge needle to induce moderate to severe sepsis. The cecum was returned to the abdominal cavity, and the incision was closed in layers. Approximately 30 min post-CLP, animals received imipenem/cilastatin (0.5 mg/mouse, Primaxin, Merck & Co., Inc.) and 1.0 mL of sterile saline for fluid resuscitation. Animals were randomized to control vehicle and experimental groups, administered P2 or P2–1 intraperitoneally at indicated doses and time points, and monitored for survival rates. To elucidate P2–1’s protective mechanisms, a separate group of Balb/C mice underwent CLP and received P2–1 (1.0 mg/kg) at 2 h and 20 h post-CLP. At 24 h post-CLP, animals were euthanized to collect blood and measure serum cytokines and chemokines using murine Cytokine Antibody Arrays.
as §2

CLP-induced sepsis = assay: CLP sepsis survival; assay type: in vivo, Balb/C mice
Procedure: as §3
All data were first assessed for normality using the Shapiro-Wilk test before applying the appropriate statistical analyses. All data are presented as mean ± standard error of the mean (SEM) unless otherwise specified. For comparison among multiple groups with non-normal (skewed) distribution, the Kruskal-Wallis ANOVA test followed by Dunn’s post-hoc test was used to evaluate statistical differences. Survival curves were analyzed using Kaplan-Meier method and compared using the nonparametric log-rank (Mantel-Cox) test. Statistical significance was defined as a P value less than 0.05.

[4] = system: CAIA-induced joint tissue cytokines and chemokines; assay: CAIA joint tissue inflammation, Cytokine Antibody Arrays; assay type: in vivo, Balb/C mice; settings: P2–1, harvested Day 10; for joint tissue inflammation (array overall): representative arrays, four vehicle- and four P2-1-treated mice
Procedure: The CAIA model was performed in Balb/C mice (8–10 weeks old) as described previously. On Day 0, mice received i.p. injection of 2 mg anti-collagen II mAb cocktail (α-II, Chondrex, Inc., Redmond, WA). On Day 3, mice received i.p. injection of 30 μg LPS (Escherichia coli O111:B4; Sigma-Aldrich) to activate inflammation and synchronize arthritis onset. Mice were randomized, and therapeutic agents (P2–1 peptide or pCTS-L-neutralizing mAb2) were administered i.p. daily from Day 6 to Day 9. Arthritis severity was scored daily using a clinical scoring system [0 – 4 per paw: 0 = normal; 1 = mild redness and swelling in a single joint type (ankle, wrist, or individual digits); 2 = moderate redness and swelling affecting two joint types; 3 = severe redness and swelling involving across all three joint types; 4 = maximal redness and swelling of the entire paw that obscured joint definition].
as §2

54-TKVH(Nle)KSFLAFQTKT-69 [P2–1, water-soluble derivative of TN peptide P2 with Met to Norleucine and Cys to Ser substitutions]
HMGB1-induced pCTS-L secretion (human PBMCs [1]): dose-dependently abrogated HMGB1-induced pCTS-L secretion; also recorded: striking and dose-dependent suppression | HMGB1-induced pCTS-L secretion (human PBMCs [1]; listed as P2-1): inhibitory effect | HMGB1-induced cytokine/chemokine secretion (words) (human PBMCs [2]): did not affect the secretion of these HMGB1-induced cytokines and chemokines; also recorded: did not broadly inhibit the secretion of these HMGB1-induced cytokines and chemokines | HMGB1-induced cytokine/chemokine secretion (words) (human PBMCs [2]; listed as P2-1): does not broadly inhibit | sepsis-induced systemic inflammation [3]: significantly attenuated | serum BLC/CXCL13 [3]: significantly reduced | serum G-CSF [3]: significantly reduced | serum IL-6 [3]: significantly reduced | serum KC/GRO-α/CXCL1 [3]: significantly reduced | serum MCP-1/CCL2 [3]: significantly reduced | serum MIP-1γ/CCL9/10 [3]: significantly reduced | serum MIP-2/GRO-β/CXCL3 [3]: significantly reduced | serum sTNFRI [3]: significantly reduced | animal survival (# of Survivors) (CLP-induced sepsis; Fig. 2C, P2–1 0.1 mg/kg, delayed administration (24 h and 48 h post-CLP), no asterisk): 60% | survival (CLP-induced sepsis; P2–1 0.1 mg/kg at 2 h, 20 h, 28 h, 44 h, and 52 h post-CLP, 0.1 mg/kg): conferred significant protection against lethal sepsis | animal survival (# of Survivors) (CLP-induced sepsis; P2–1 0.1 mg/kg i.p. at 2 h, 20 h, 28 h, 44 h, and 52 h post-CLP, P < 0.05 vs. control): 70% | survival (CLP-induced sepsis; P2–1 1.0 mg/kg, delayed, 24 h and 48 h post-CLP, 1 mg/kg): provided potent protection against lethal sepsis; also recorded: rescued mice from lethal sepsis | animal survival (# of Survivors) (CLP-induced sepsis; delayed, P2–1 1.0 mg/kg i.p. at 24 h and 48 h post-CLP, P < 0.05 vs. vehicle): 90% | joint tissue MIP-1γ/CCL9/10 [4]: reduced levels; also recorded: significant reduction | joint tissue VCAM-1 [4]: reduced levels; also recorded: significant reduction | joint tissue sTNFRI [4]: reduced levels; also recorded: significant reduction | joint tissue sTNFRII [4]: reduced levels; also recorded: significant reduction | joint tissue inflammation (array overall) [4]: significantly reduced CAIA-induced joint tissue inflammation | joint tissue inflammation (array overall) ([4]; listed as P2-1): reduction in various inflammatory cytokines and chemokines
